From patent US7060477B2, “Epoxide hydrolases of aspergillus origin” (Centre National de la Recherche Scientifique, priority 1999, dated 2006)
Where two headings read alike, the source gives them in different places.

Assays:
[1] = tested on: epoxide hydrolase from Aspergillus niger; experiment: Effect of selective reagents and co-solvents on epoxide hydrolase activity (pNSO as substrate, diol formed by HPLC); type: biochemical; details: for effect of co-solvent on the activity of epoxide hydrolase (opening of the epoxide): organic co-solvent for dissolving the substrate
Experimental: (§1) Add 50 μL of the preparation containing the enzyme to 410 μL of 0.1 M sodium phosphate buffer pH 7.0 (buffer B) and pre-incubate the mixture at 35° C. for 2 min. Then add 40 μL of a 50 mM solution of racemic pNSO in DMF (final pNSO concentration: 4 mM).
(§2) After 10 min of incubation, stop the reaction by adding 1 mL of dichloromethane. Stir the mixture vigorously so as to extract both the substrate and the diol produced. The quantity of diol formed is determined after separation on a column of silica by HPLC (high-pressure liquid chromatography) (Waters Associates, USA) as described previously (Nellaiah et al. 1996).
One unit of epoxide hydrolase represents the quantity of enzyme that catalyses the formation of one μmol of diol per minute in the above conditions. After incubation with raw extracts, the quantity of diol formed increases linearly with time for at least 30 min, and the reaction rate is proportional to the concentration of the enzyme in the range of 0.01 to 1.2 units (Nellaiah et al., 1996).

[2] = cited from earlier work
[3] = Hydrolysis of pNSO by the purified EH: pH/temperature profile, enantioselectivity, regioselectivity; type: biochemical, Aspergillus niger; design: activation energy: unit not given here
Experimental: as §1, §2
The incubations with H2[^18O] are carried out in 1 mL flasks containing 180 μL of H2[^18O] buffer B, 20 μL of the purified epoxide hydrolase and 20 μL of substrate (50 mM in acetonitrile). After 1.5 h of incubation at 25° C. with magnetic stirring (500 rpm) the substrate that remains and the product formed are extracted with 2 mL of dichloromethane. The diol is purified by analytical chromatography on silica (eluent: diethylether). 2 μL of samples are analysed by gas chromatography/mass spectrometry (GC/MS). The diol that remains is converted to the corresponding acetonide by reaction with […] in the presence of p-toluene sulphonic acid. The acetonide is analysed by GC/MS as already described by Audier et al., 1968.
Reaction in a total volume of 5 mL is carried out at 25° C., with a substrate with a concentration of 4.3 mM with DMSO (20 vol.%) as co-solvent in a 0.1 M sodium phosphate buffer pH 8.0.
The reaction is started by adding 13 U/L of the purified enzyme. Samples are taken every 30 minutes for quantification of the concentrations of the substrate and of product by HPLC using a reversed-phase column (Nellaiah et al., 1996) and for quantification of the enantiomeric excess of the epoxide and of the diol by gas-phase chromatography (Nellaiah et al., 1996).

[4] = Enzymatic activity of recombinant epoxide hydrolase and mutants (conversion of R enantiomer of para-nitrostyrene oxide to diol); type: biochemical, Aspergillus niger; details: 4-nitro-styrene oxide hydrolysed
Experimental: in the Ncol site that contains the starting codon of the pGEF+ vector in the context adapted to a ribosome binding site, upstream of the promoter of the RNA polymerase T7. The resulting plasmid is called pGEF II hereinafter. The PCR fragment AfIII/Eco RI of the EH of Aspergillus is ligated in the Ncol/Eco RI site of pGEF II to produce the pGEF Asp EH″ expression construction. The E. coli strain BL21 (DE 3) (Novagen) is transformed with pGEF Asp EH and put in the LB medium at 30° C. In late exponential phase, induction of expression of the recombinant protein is effected by adding isopropyl-β-thiogalactoside (100 μM). After two hours, the bacteria are collected by centrifugation, resuspended in 0.02 volumes of culture of the STE buffer (Tris-HCl, 10 mM, sodium chloride 100 mM, ethylenediamine tetraacetic acid 1 mM, pH 7.4) and stored at −70° C. Enzymatic activity is determined by converting the R enantiomer of para-nitrostyrene oxide to the corresponding diol. The reaction is carried out at a substrate concentration of 880 μM in 500 μL STE at 37° C. for 30 min, in the presence of 10 μL of acetonitrile which is used as solvent of para-nitrostyrene oxide. […]
The conversion substrate is quantified by adding 400 μL of supernatant to 800 μL of water and reading the optical density at 277 nm, with the molar extinction coefficient of the product being 9.1×10^3 M^−1 cm^−1. […]

[5] = Isoelectric point by electrofocusing; type: physicochemical, Aspergillus niger; details: pH gradient 3 to 9, silver nitrate staining
Experimental: SDS-PAGE electrophoresis is carried out on a plate with thickness of 1 mm containing a resolving gel (10% of acrylamide) and a concentrating gel (4% of acrylamide) at pH 8.8 in the presence of 0.1% of sodium dodecyl sulphate (SDS) (Laemmli, 1970). The samples are dissolved in a Tris-HCl buffer (62.5 mM, […]) containing 1% (w/v) of SDS, 10% (v/v) of glycerol and 2% (v/v) of β-mercaptoethanol, and are heated at 100° C. for 2 minutes. The proteins are stained with 0.1% (w/v) of Coomassie blue. Migrations on non-denaturing PAGE gels were effected in the same way except that no β-mercaptoethanol was added to the resolving buffer, and that the samples were not heated. Electrofocusing was carried out with a pH gradient of 3–9 by means of the Pharmacia LKB “Phastsystem” system and standard Pharmacia procedures. The proteins were stained with silver nitrate.

[6] = purified EH of Aspergillus niger, pNSO substrate

For O=C([O-])c1cc[c]([Hg][OH])cc1 [4-hydroxy-mercuribenzoate], the “effect of selective reagent on the activity of the enzyme” value (from here on “effect of selective reagent”) [1, 6] was “strong inactivation”.

For CN(C)C=O [DMF], the “effect of co-solvent on the activity of epoxide hydrolase (opening of the epoxide)” value (from here on “effect of co-solvent”) ([1]; pNSO substrate) was “strongest activities”.

For O=C(O)CN(CCN(CC(=O)O)CC(=O)O)CC(=O)O [EDTA], the “effect of selective reagent” value [1] was “no effect”.

In the case of [Cl][Hg][Cl] [HgCl2], the “effect of selective reagent” value [1, 6] is reported as “strong inactivation”.

For C1CCOC1 [THF], the “effect of co-solvent” value ([1]; pNSO substrate) was “low activity”.

In the case of CC(C)=O [acetone], the “effect of co-solvent” value ([1]; pNSO substrate) is reported as “strongest activities”.

For N[C@@H](CS)C(=O)O [cysteine], the “effect of selective reagent” value [1, 6] was “positive effect”.

With OO [hydrogen peroxide] the “effect of selective reagent” value [1, 6] was “strongly inhibit”.

With NC(=O)CI [iodoacetamide] the “effect of selective reagent” value [1, 6] was “strong inactivation”.

With O=C(OO)c1cccc(Cl)c1 [meta-chloroperbenzoic acid] the “effect of selective reagent” value [1, 6] was “strongly inhibit”.

In the case of OCCS [β-mercaptoethanol], the “effect of selective reagent” value [1, 6] is reported as “positive effect”.

In the case of phenylmethane sulphonyl chloride [PMSF], the “effect of selective reagent” value [1, 6] is reported as “no effect”.

B1: rat microsomal epoxide hydrolase (mEH): rat microsomal epoxide hydrolase, literature comparison enzyme (protein, UniProt P07687 1-455, looked up)
Epoxide hydrolase 1: MWLELVLASLLGFVIYWFVSRDKEETLPLGDGWWGPGSKPSAKEDESIRPFKVETSDEEIKDLHQRIDRFRASPPLEGSRFHYGFNSNYMKKVVSYWRNEFDWRKQVEILNQYPHFKTKIEGLDIHFIHVKPPQLPSGRTPKPLLMVHGWPGSFYEFYKIIPLLTDPKSHGLSDEHVFEVICPSIPGYGYSEASSKKGLNSVATARIFYKLMTRLGFQKFYIQGGDWGSLICTNMAQMVPNHVKGLHLNMAFISRSFYTMTPLLGQRFGRFLGYTEKDIELLYPYKEKVFYSIMRESGYLHIQATKPDTVGCALNDSPVGLAAYILEKFSTWTKSEYRELEDGGLERKFSLDDLLVNIMIYWTTGTIVSSQRYYKENLGQGIMVHKHEGMKVFVPTGFSAFPSELLHAPEKWVKVKYPKLISYSYMERGGHFAAFEEPKLLAQDIRKFVSLAELQ
In the case of B1, the “conversion number increased by a factor” value ([2]; on replacing Glu^404 of the charge relay system with aspartic acid) is given as 30 and the specific activity ([2]; styrene oxide and benzo[α]pyrene oxide) is given as “about 500 nmol converted per minute and milligram of pure enzyme”.

B2: EH from Aspergillus niger: fungal epoxide hydrolase represented by SEQ ID NO: 2, purified from Aspergillus niger LCP521 or recombinant in E. coli (protein)
chain: MSAPFAKFPSSASISPNPFTVSIPDEQLDDLKTLVRLSKIAPPTYESLQADGRFGITSEWLTTMREKWLSEFDWRPFEARLNSFPQFTTEIEGLTIHFAALFSEREDAVPIALLHGWPGSFVEFYPILQLFREEYTPETLPFHLVVPSLPGYTFSSGPPLDKDFGLMDNARVVDQLMKDLGFGSGYIIQGGDIGSFVGRLLGVGFDACKAVHLNLCAMRAPPEGPSIESLSAAEKEGIARMEKFMTDGLAYAMEHSTRPSTIGHVLSSSPIALLAWIGEKYLQWVDKPLPSETILEMVSLYWLTESFPRAIHTYRETTPTASAPNGATMLQKELYIHKPFGFSFFPKDLCPVPRSWIATTGNLVFFRDHAEGGHFAALERPRELKTDLTAFVEQVWQK
modifications: Aspergillus niger
In the case of B2, the “pH of maximum activity” value [3] is reported as 7 pH, the “temperature of maximum activity” value [3] is reported as 40 °C and the “regioselectivity of the reaction” value ([3]; for the 2 carbon, pNSO) is reported as 97%. For the same molecule, the activation energy ([3]; from 2 to 40° C.) was 27, the “ratio of the specific constant (kcat/Km): initial rate of hydrolysis of (R) enantiomer versus (S) enantiomer” value ([3]; starting from racemic pNSO) was 55 times and the specific activity [4] was 100 μmol per minute and milligram. It also gave an isoelectric point [5] of 4.5.
